The values below come from patent publication US20230103791A1 (GLAXOSMITHKLINE INTELLECTUAL PROPERTY DEVELOPMENT LIMITED, priority 2019, published 2023).

Structures are written as SMILES. Where only a bound is given, the exact number is not on record here.

This assay deals with T1, human Nav1.8 (Homo sapiens, UniProt Q9Y5Y9).
T1 construct: expressed in transfected cells; host or cells: HEK293 (HEK293-Nav1.8)
T1 sequence (Q9Y5Y9 whole entry): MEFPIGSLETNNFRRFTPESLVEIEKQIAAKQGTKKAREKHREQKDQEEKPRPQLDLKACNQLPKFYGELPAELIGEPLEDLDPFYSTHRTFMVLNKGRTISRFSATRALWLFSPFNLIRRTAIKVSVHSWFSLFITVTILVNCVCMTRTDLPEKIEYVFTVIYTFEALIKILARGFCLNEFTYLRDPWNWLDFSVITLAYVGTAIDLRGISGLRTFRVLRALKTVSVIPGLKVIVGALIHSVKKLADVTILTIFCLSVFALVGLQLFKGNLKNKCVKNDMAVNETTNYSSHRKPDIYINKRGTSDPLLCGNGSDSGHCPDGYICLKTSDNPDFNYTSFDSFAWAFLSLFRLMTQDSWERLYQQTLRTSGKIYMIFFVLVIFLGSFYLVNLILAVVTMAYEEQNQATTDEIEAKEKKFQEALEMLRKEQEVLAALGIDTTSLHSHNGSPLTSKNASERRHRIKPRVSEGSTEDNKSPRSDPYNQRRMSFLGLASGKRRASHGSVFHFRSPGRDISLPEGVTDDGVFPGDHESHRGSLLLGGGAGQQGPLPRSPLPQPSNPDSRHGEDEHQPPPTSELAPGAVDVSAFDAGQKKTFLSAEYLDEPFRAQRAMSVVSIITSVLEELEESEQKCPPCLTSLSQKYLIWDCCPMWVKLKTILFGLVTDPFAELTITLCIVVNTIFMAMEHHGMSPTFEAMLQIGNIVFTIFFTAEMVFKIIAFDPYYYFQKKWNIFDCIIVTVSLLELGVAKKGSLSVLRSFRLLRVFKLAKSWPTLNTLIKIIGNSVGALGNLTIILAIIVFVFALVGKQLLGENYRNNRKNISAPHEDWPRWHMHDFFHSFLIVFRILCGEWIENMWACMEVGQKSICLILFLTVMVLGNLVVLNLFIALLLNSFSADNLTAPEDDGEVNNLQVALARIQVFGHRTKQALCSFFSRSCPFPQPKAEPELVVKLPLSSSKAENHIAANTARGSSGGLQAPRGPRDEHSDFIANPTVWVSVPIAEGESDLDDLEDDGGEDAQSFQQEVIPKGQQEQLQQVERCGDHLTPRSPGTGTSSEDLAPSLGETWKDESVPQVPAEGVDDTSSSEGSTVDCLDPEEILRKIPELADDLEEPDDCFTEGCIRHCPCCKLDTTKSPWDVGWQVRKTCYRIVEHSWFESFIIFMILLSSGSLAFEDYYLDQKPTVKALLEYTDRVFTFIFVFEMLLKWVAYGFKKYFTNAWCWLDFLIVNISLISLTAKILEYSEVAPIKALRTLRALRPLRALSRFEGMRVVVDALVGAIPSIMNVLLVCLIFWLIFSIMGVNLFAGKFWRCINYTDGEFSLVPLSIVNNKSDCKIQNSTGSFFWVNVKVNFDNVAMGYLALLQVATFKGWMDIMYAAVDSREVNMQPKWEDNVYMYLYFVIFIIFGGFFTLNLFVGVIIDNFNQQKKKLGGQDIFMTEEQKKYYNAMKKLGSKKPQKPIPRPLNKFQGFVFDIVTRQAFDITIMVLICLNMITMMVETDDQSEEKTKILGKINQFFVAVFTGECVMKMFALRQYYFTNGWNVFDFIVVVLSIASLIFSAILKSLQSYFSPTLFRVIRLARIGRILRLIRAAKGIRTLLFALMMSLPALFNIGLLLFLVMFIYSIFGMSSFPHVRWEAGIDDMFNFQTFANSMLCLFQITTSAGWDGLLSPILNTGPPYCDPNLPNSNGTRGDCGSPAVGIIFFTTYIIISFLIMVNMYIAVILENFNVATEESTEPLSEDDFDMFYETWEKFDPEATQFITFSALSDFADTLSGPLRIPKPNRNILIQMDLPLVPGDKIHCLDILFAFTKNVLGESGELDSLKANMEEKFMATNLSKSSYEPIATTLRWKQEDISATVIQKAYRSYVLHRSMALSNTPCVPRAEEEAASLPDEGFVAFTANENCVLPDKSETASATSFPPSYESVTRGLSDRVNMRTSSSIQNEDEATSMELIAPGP
T1 sequence (Q07699 19-218 partner): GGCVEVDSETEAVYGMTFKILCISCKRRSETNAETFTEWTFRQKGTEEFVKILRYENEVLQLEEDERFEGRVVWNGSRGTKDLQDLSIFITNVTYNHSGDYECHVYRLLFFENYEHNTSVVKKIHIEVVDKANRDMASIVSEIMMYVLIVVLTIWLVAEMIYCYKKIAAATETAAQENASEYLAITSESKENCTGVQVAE
The experiment in a line: Nav1.8 sodium channels assay, QPatch 48 HTX electrophysiology in HEK293-Nav1.8 cells. The settings on record: at least one set of experimental runs; read-out: average pIC50 value against Nav1.8 (converted). Format: cell-based. The method in brief:
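IC50 came from 6-8 point curves of P2 current amplitude, normalized to baseline and a positive reference, and corrected for run-down using vehicle-only wells. Automated patch clamp used HEK293-Nav1.8 (with Navβ1 and TREK1) at pH 7.4 outside and CsF-based solution inside. An 8 s inactivating step at −46 mV preceded the 0 mV test pulse, repeated at 0.07 Hz.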
Background: In patch-clamp work, channel activity is measured electrically.
As to `Cc1cc(F)ccc1N1CN(c2ccc(=O)[nH]c2C)C(=O)c2cc(F)c(Cl)nc21` [Example 227, 7-chloro-6-fluoro-1-(4-fluoro-2-methylphenyl)-3-(2-methyl-6-oxo-1,6-dihydropyridin-3-yl)-2,3-dihydropyrido[2,3-d]pyrimidin-4(1H)-one], the IC50 is ≤ 100 nM.
To `COc1cc(F)ccc1N1CN(c2ccc(=O)[nH]c2)C(=O)c2ccc(C#N)cc21` [Example 229, 1-(4-fluoro-2-methoxyphenyl)-4-oxo-3-(6-oxo-1,6-dihydropyridin-3-yl)-1,2,3,4-tetra-hydroquinazoline-7-carbonitrile] belongs 794 to 7940 nM; to `Cc1cc(F)ccc1N1CN(c2ccc(=O)[nH]c2C)C(=O)c2ccc(OCC(F)(F)F)cc21` [Example 230, 1-(4-fluoro-2-methylphenyl)-3-(2-methyl-6-oxo-1,6-dihydropyridin-3-yl)-7-(2,2,2-trifluoroethoxy)-2,3-dihydroquinazolin-4(1H)-one], ≤ 100 nM.
As for `Cc1cc(OC(F)(F)F)ccc1N1CN(c2ccc(=O)[nH]c2)C(=O)c2cc(C(F)(F)F)ccc21` [Example 231, 1-(2-methyl-4-(trifluoromethoxy)phenyl)-3-(6-oxo-1,6-dihydropyridin-3-yl)-6-(trifluoromethyl)-2,3-dihydroquinazolin-4(1H)-one], the IC50 is ≤ 100 nM.
The figure for `Cc1cc(F)ccc1N1CN(c2c(Cl)cc(=O)[nH]c2C)C(=O)c2cc(Cl)ccc21` [Example 232, 6-chloro-3-(4-chloro-2-methyl-6-oxo-1,6-dihydropyridin-3-yl)-1-(4-fluoro-2-methylphenyl)-2,3-dihydroquinazolin-4(1H)-one] is 794 to 7940 nM; for `Cc1cc(F)ccc1N1CN(c2ccc(=O)[nH]c2C)C(=O)c2cc(C#N)c(Cl)cc21` [Example 233, 7-chloro-1-(4-fluoro-2-methylphenyl)-3-(2-methyl-6-oxo-1,6-dihydropyridin-3-yl)-4-oxo-1,2,3,4-tetra-hydroquinazoline-6-carbonitrile] it is ≤ 100 nM.
To `Cc1cc(F)ccc1N1CN(c2ccc(=O)[nH]c2C)C(=O)c2c1ccc(Cl)c2C` [Example 234, 6-chloro-1-(4-fluoro-2-methylphenyl)-5-methyl-3-(2-methyl-6-oxo-1,6-dihydropyridin-3-yl)-2,3-dihydroquinazolin-4(1H)-one] belongs ≤ 100 nM.
To `Cc1[nH]c(=O)ccc1N1CN(c2cc(F)cc(F)c2C)c2ccc(C(F)(F)F)cc2C1=O` [Example 235, 1-(3,5-difluoro-2-methylphenyl)-3-(2-methyl-6-oxo-1,6-dihydropyridin-3-yl)-6-(trifluoromethyl)-2,3-dihydroquinazolin-4(1H)-one] belongs 794 to 7940 nM; to `COc1cccc2c1C(=O)N(c1ccc(=O)[nH]c1C)CN2c1ccc(F)cc1C(C)C` [Example 236, 1-(4-fluoro-2-isopropylphenyl)-5-methoxy-3-(2-methyl-6-oxo-1,6-dihydropyridin-3-yl)-2,3-dihydroquinazolin-4(1H)-one], 794 to 7940 nM.
With `Cc1[nH]c(=O)ccc1N1CN(C23CC(C2)C3)c2cc(C(F)(F)F)ccc2C1=O` [Example 237, 1-(bicyclo[1.1.1]pentan-1-yl)-3-(2-methyl-6-oxo-1,6-dihydropyridin-3-yl)-7-(trifluoromethyl)-2,3-dihydroquinazolin-4(1H)-one], the IC50 is 794 to 7940 nM.
Take `Cc1cc(F)ccc1N1CN(c2cc[nH]c(=O)c2C)C(=O)c2cc(C(F)(F)F)ccc21` [Example 238, 1-(4-fluoro-2-methylphenyl)-3-(3-methyl-2-oxo-1,2-dihydropyridin-4-yl)-6-(trifluoromethyl)-2,3-dihydroquinazolin-4(1H)-one]: the IC50 was 794 to 7940 nM.
For the compound `Cc1cc(F)ccc1N1CN(c2ccc(=O)[nH]c2C)Cc2cc(C(F)(F)F)ccc21` [Example 239, 5-(1-(4-fluoro-2-methylphenyl)-6-(trifluoromethyl)-1,4-dihydroquinazolin-3(2H)-yl)-6-methylpyridin-2(1H)-one], the IC50 was 126 to 631 nM.
To `Cc1[nH]c(=O)ccc1N1CN(c2ccccc2CC(F)(F)F)c2ccc(C(F)(F)F)cc2C1=O` [Example 240, 3-(2-Methyl-6-oxo-1,6-dihydropyridin-3-yl)-1-(2-(2,2,2-trifluoroethyl)phenyl)-6-(trifluoromethyl)-2,3-dihydroquinazolin-4(1H)-one] belongs ≤ 100 nM; to `Cc1cc(F)ccc1N1CN(c2ccc(=O)[nH]c2C)C(=O)c2ccc(OC(F)F)nc21` [Example 241, 7-(difluoromethoxy)-1-(4-fluoro-2-methylphenyl)-3-(2-methyl-6-oxo-1,6-dihydropyridin-3-yl)-2,3-dihydropyrido[2,3-d]pyrimidin-4(1H)-one], 126 to 631 nM.
To `Cc1cc(F)ccc1N1CN(c2ccc(=O)[nH]c2C)C(=O)c2cc(F)c(C#N)cc21` [Example 242, 6-fluoro-1-(4-fluoro-2-methylphenyl)-3-(2-methyl-6-oxo-1,6-dihydropyridin-3-yl)-4-oxo-1,2,3,4-tetrahydroquin-azoline-7-carbonitrile] belongs ≤ 100 nM; to `CCc1cc(F)ccc1N1CN(c2ccncc2C)C(=O)c2cc(Cl)c(C#N)cc21` [Example 243, 6-chloro-1-(2-ethyl-4-fluorophenyl)-3-(3-methylpyridin-4-yl)-4-oxo-1,2,3,4-tetrahydroquin-azoline-7-carbonitrile], 126 to 631 nM; to `Cc1c[n+]([O-])ccc1N1CN(c2ccc(F)cc2C)c2cc(C(F)F)c(Cl)cc2C1=O` [Example 244, 4-(6-Chloro-7-(difluoromethyl)-1-(4-fluoro-2-methylphenyl)-4-oxo-1,4-dihydroquinazolin-3(2H)-yl)-3-methylpyridine 1-oxide], ≤ 100 nM.
The figure for `CCc1cc(F)ccc1N1CN(c2cc[n+]([O-])cc2C)C(=O)c2cc(Cl)c(F)cc21` [Example 245, 4-(6-chloro-1-(2-ethyl-4-fluorophenyl)-7-fluoro-4-oxo-1,4-dihydroquinazolin-3(2H)-y1)-3-methylpyridine 1-oxide] is ≤ 100 nM; for `Cc1c[n+]([O-])ccc1N1CN(c2ccc(OC(F)(F)F)cc2C)c2cc(F)c(Cl)cc2C1=O` [Example 246, 4-(6-chloro-7-fluoro-1-(2-methyl-4-(trifluoromethoxy)phenyl)-4-oxo-1,4-dihydroquinazolin-3(2H)-yl)-3-methylpyridine 1-oxide] it is ≤ 100 nM; for `CCc1cc(F)ccc1N1CN(c2cc[n+]([O-])cc2C)C(=O)c2cc(Cl)c(C#N)cc21` [Example 247, 4-(6-chloro-7-cyano-1-(2-ethyl-4-fluorophenyl)-4-oxo-1,4-dihydroquinazolin-3(2H)-yl)-3-methylpyridine 1-oxide] it is ≤ 100 nM.
On to `Cc1cc(F)ccc1N1CN(c2ccc(C(N)=O)[n+]([O-])c2)C(=O)c2c1ccc(Cl)c2F` [Example 248, 2-carbamoyl-5-(6-chloro-5-fluoro-1-(4-fluoro-2-methylphenyl)-4-oxo-1,4-dihydroquinazolin-3(2H)-yl)pyridine 1-oxide], for which the IC50 is 794 to 7940 nM.
The figure for `Cc1cc(F)ccc1N1CN(c2ccc[n+]([O-])c2)C(=O)c2cc(C(F)(F)F)ccc21` [Example 249, 3-(1-(4-fluoro-2-methylphenyl)-4-oxo-6-(trifluoromethyl)-1,4-dihydroquinazolin-3(2H)-yl)pyridine 1-oxide] is 794 to 7940 nM; for `Cc1c[n+]([O-])ccc1N1CN(c2ccc(F)cc2C)c2ccc(C(F)(F)F)cc2C1=O` [Example 254, 4-(1-(4-fluoro-2-methylphenyl)-4-oxo-6-(trifluoromethyl)-1,4-dihydroquinazolin-3(2H)-yl)-3-methylpyridine 1-oxide] it is 126 to 631 nM; for `Cc1cc(N2CN(c3ccc(F)cc3C)c3ccc(C(F)(F)F)cc3C2=O)c[n+]([O-])c1` [Example 255, 3-(1-(4-fluoro-2-methylphenyl)-4-oxo-6-(trifluoromethyl)-1,4-dihydroquinazolin-3(2H)-yl)-5-methylpyridine 1-oxide] it is 794 to 7940 nM.
The figure for `Cc1c[n+]([O-])ccc1N1CN(c2ccc(OC(F)(F)F)cc2C)c2ccc(C(F)(F)F)cc2C1=O` [Example 256, 3-methyl-4-(1-(2-methyl-4-(trifluoromethoxy)phenyl)-4-oxo-6-(trifluoromethyl)-1,4-dihydroquinazolin-3(2H)-yl)pyridine 1-oxide] is ≤ 100 nM; for `Cc1cc(F)ccc1N1CN(c2ccc(=O)[nH]c2N)C(=O)c2cc(C(F)(F)F)ccc21` [Example 257, 3-(2-Amino-6-oxo-1,6-dihydropyridin-3-yl)-1-(4-fluoro-2-methylphenyl)-6-(trifluoromethyl)-2,3-dihydroquinazolin-4(1H)-one] it is ≤ 100 nM; for `Cc1cc(F)ccc1N1CN(c2ccc(=O)[nH]c2C)C(=O)c2ccc(C3COC3)cc21` [Example 265, 1-(4-Fluoro-2-methylphenyl)-3-(2-methyl-6-oxo-1,6-dihydropyridin-3-yl)-7-(oxetan-3-yl)-2,3-dihydroquinazolin-4(1H)-one] it is 126 to 631 nM.
To `Cc1cc(O)ccc1N1CN(c2ccc(F)cc2C)c2ccc(C(F)(F)F)cc2C1=O` [Example 266, 1-(4-Fluoro-2-methylphenyl)-3-(4-hydroxy-2-methylphenyl)-6-(trifluoromethyl)-2,3-dihydroquinazolin-4(1H)-one] belongs 794 to 7940 nM; to `Cc1cc(O)ccc1N1CN(c2ccc(F)cc2C)c2cc(C(F)(F)F)ccc2C1=O` [Example 267, 1-(4-Fluoro-2-methylphenyl)-3-(4-hydroxy-2-methylphenyl)-7-(trifluoromethyl)-2,3-dihydroquinazolin-4(1H)-one], 794 to 7940 nM; to `Cc1cc(F)ccc1N1CN(C2CCC(=O)NC2)C(=O)c2ccc(C(F)(F)F)cc21` (stereo not drawn) [Example 268], 126 to 631 nM.
